The values that follow come from US6632826B1, “Carbocyclic HIV protease inhibitors” (priority 2001, dated 2003).

By IC50 is commonly meant the midpoint of a concentration-inhibition curve.

One assay addresses HIV-1 protease (Human immunodeficiency virus type 1 group M subtype B, UniProt P04585). Description: HIV protease inhibition assay (quenched fluorogenic substrate, fluorescence energy transfer). The note with it: crude HIV-1 protease from E. coli, pH 4.7, 2 hours at 37° C.
The next assay has as its system HIV-HXB2 in MT4 cells. Description: Antiviral assay: protection of HIV-infected MT4 cells from cell death (MTT). It is filed as cell-based. The note with it: MT4 cells infected with HIV-HXB2, 5 days, concentration preserving cell viability by 50%. How it is done: Methods 20: 309-321]. The method is based on the ability of compounds to protect HIV-infected T lymphoblastoid cells (MT4 cells) from cell-death mediated by the infection. The endpoint of the assay was calculated as the concentration of compound at which the cell viability of the culture was preserved by 50% (‘50% inhibitory concentration’, IC50). The cell viability of a culture was determined by the uptake of soluble, yellow 3-[4,5-dimethylthiazol-2-yl]-2,5-diphenyltetrazolium bromide (MTT) and its reduction to a purple insoluble formazan salt. After solubilization, spectrophotometric methods were employed to measure the amount of formazan product. MT4 cells were prepared to be in logarithmic-phase growth and a total of 2×10^6 cells infected with either the wild type or site directed mutant clones of HIV-HXB2 at a multiplicity of approximately 0.0001 infectious units of virus per cell in a total volume of between 200-500 μl. The cells were incubated with virus for one hour at 37° C. then washed in 0.01 M phosphate buffered saline, pH 7.2, and resuspensed in culture medium for incubation in culture with serial dilutions of test compound. The culture medium used was RPMI 1640 without phenol red, supplemented with penicillin, streptomycin, L-glutamine and 10% fetal calf serum (GM 10).
Test compounds were prepared as 2 mM solutions in dimethyl sulphoxide (DMSO). Four replicate, serial 2-fold dilutions in GM10 were then prepared and 50 microlitre amounts placed in 96-well plates over a final concentration range of 625-1.22 nm. Fifty microlitres GM10 and 3.75×10^4 infected cells were then added to each well. Control cultures containing no cells (blank), uninfected cells (100% viability; 4 replicates) and infected cells without compound (total virus-mediated cell death; 4 replicates) were also prepared. The cultures were then incubated at 37° C. in a humidified atmosphere of 5% CO2 in air for 5 days.
A fresh solution of 5 mg/mL MTT was prepared in 0.01 M phosphate buffered saline, pH 7.2 and 20 μL added to each culture. The cultures were further incubated as before for 2 hours. They were then mixed by pipetting up and down, and 170 microlitres of Triton X-100 in acidified isopropanol (10% v/v Triton X-100 in 1:250 mixture of concentrated HCl in isopropanol) were added and the cultures were mixed again by pipetting up and down. When the formazan deposit was fully solubilised by further mixing, the absorbance (OD) of the cultures was measured at 540 nm and 690 nm wavelength (690 nm readings were used as blanks for artefacts between wells). The percent protection for each treated culture was then calculated from the equation: [formula]
The IC50 was then obtained from graph plots of percentage protection versus log10 drug concentration.

The mark [1] stands for this setting: Human immunodeficiency virus 1, HXB2, MT4, 120 h.

Each structure is given as a SMILES string. Like-named read-outs stand apart in the source and are kept apart here.

Protocol for HIV-1 protease: HIV Protease Inhibition Assay
HIV protease inhibitory activity was assessed using an adaptation of the method of Matayoshi. et al. [Matayoshi E. D. et al (1990).
Crude HIV-1 protease was prepared from E. coli pPTΔN. Cultures were grown at 30° C. in M9 medium supplemented with 0.2% casamino acids, 100 μg/ml ampicillin and 25 μg/ml thiamine until OD600=0.5-0.6, and the temperature was raised to 42° C. to induce expression of the protease. After 1.5 hours, the cells were harvested and the pellets stored at −70° C. until required.
The protease was prepared by lysis of the cells in a French pressure cell followed by precipitation of the enzyme with ammonium sulfate at 30% saturation.
The assay buffer comprised 0.1M sodium acetate pH 4.7, 8 mM EDTA, 0.2 M NaCl.
Tubes were incubated for 2 hours at 37° C. and the reaction was terminated by the addition of 500 μl of a 2:1 mixture of DMSO: 50 mM Tricine pH 8.5. Fluorescence was measured in a fluorescence spectrophotometer, excitation λ=340 nm, emission λ=492 nm.

In the case of `CC(C)(C)NC(=O)C1CCCCC1C[C@@H](O)[C@H](Cc1ccccc1)NC(=O)[C@@H](C[S+]([O-])c1cccc2ccccc12)NS(C)(=O)=O` (stereo partly drawn) [Example 21, 2-{2-Hydroxy-3-[2-methanesulfonylamino-3-(naphthalene-1-sulfinyl)-propionylamino]-4-phenyl-butyl}-cyclohexanecarboxylic acid tert-butylamide], the half-maximal inhibitory concentration (IC50) against HIV-1 protease (Enzyme IC50 (nM)) amounted to 0.31 nM.
For the compound `COC1CCC(C[C@@H](O)[C@H](Cc2ccccc2)NC(=O)[C@@H](CS(=O)(=O)c2ccc3ccccc3c2)NS(C)(=O)=O)C(C(=O)NC(C)(C)C)C1` (stereo partly drawn) [Example 30, 2-{2-Hydroxy-3-[2-methanesulfonylamino-3-(naphthalene-2-sulfonyl)-propionylamino]-4-phenyl-butyl}-5-methoxy-cyclohexanecarboxylic acid tert-butylamide], the IC50 in the assay on HIV-HXB2 in MT4 cells (setting [1]) amounted to 173 nM; against HIV-1 protease (Enzyme IC50 (nM)), 0.6 nM.
As for `COC1CCC(C[C@@H](O)[C@H](Cc2ccccc2)NC(=O)[C@@H](CSc2ccc3ccccc3c2)NS(C)(=O)=O)C(C(=O)NC(C)(C)C)C1` (stereo partly drawn) [Example 1, 2-{2-hydroxy-3-[2-methanesulfonylamino-3-(naphthalen-2-ylsulfanyl)-propionylamino]-4-phenyl-butyl}-5-methoxy-cyclohexanecarboxylic acid tert-butylamide], the IC50 with HIV-HXB2 in MT4 cells (setting [1]) is 29 nM; against HIV-1 protease (Enzyme IC50 (nM)), 0.31 nM.
Taken in the same sequence, the figures for `CC1CC(C[C@@H](O)[C@H](Cc2ccccc2)NC(=O)[C@@H](C[S+]([O-])c2ccc3ccccc3c2)NS(C)(=O)=O)C(C(=O)NC(C)(C)C)C1` (stereo partly drawn) [Example 15, 2-{2-Hydroxy-3-[2-methanesulfonylamino-3-(naphthalene-2-sulfinyl)-propionylamino]-4-phenyl-butyl}-4-methyl-cyclopentanecarboxylic acid tert-butylamide] were 27 nM and 1.5 nM.
On to `COC1CCC(C[C@@H](O)[C@H](Cc2ccccc2)NC(=O)[C@@H](C[S+]([O-])c2ccc3ccccc3c2)NS(C)(=O)=O)C(C(=O)NC(C)(C)C)C1` (stereo partly drawn) [Example 20, 2-{2-Hydroxy-3-[2-methanesulfonylamino-3-(naphthalene-2-sulfinyl)-propionylamino]-4-phenyl-butyl}-5-methoxy-cyclohexanecarboxylic acid tert-butylamide], for which the figures for the half-maximal inhibitory concentration (IC50) with HIV-HXB2 in MT4 cells and at HIV-1 protease (read-out: Enzyme IC50) were 21 nM and 0.2 nM, respectively.
Turning to `CC1CC(C[C@@H](O)[C@H](Cc2ccccc2)NC(=O)[C@@H](CSc2ccc3ccccc3c2)NS(C)(=O)=O)C(C(=O)NC(C)(C)C)C1` (stereo partly drawn) [Example 2, 2-{2-Hydroxy-3-[2-methanesulfonylamino-3-(naphthalen-2-ylsulfanyl)-propionylamino]-4-phenyl-butyl}-4-methyl-cyclopentanecarboxylic acid tert-butylamide], the half-maximal inhibitory concentration (IC50) came out at 230 nM with HIV-HXB2 in MT4 cells (setting [1]) and 1.5 nM against HIV-1 protease (Enzyme IC50 (nM)).
On to `COC1CCC(C[C@@H](O)[C@H](Cc2ccccc2)NC(=O)[C@@H](CSc2ccc3ccccc3c2)NS(C)(=O)=O)C(C(=O)NC(C)(C)C)C1` (stereo partly drawn) [Example 10, 2-{2-Hydroxy-3-[2-methanesulfonylamino-3-(naphthalen-2-ylsulfanyl)-propionylamino]-4-phenyl-butyl}-5-methoxy-cyclohexanecarboxylic acid tert-butylamide], for which the IC50 worked out at 28 nM in the assay with HIV-HXB2 in MT4 cells and 0.3 nM against HIV-1 protease (Enzyme IC50 (nM)).
Take `COC1CCC(C[C@@H](O)[C@H](Cc2ccccc2)NC(=O)[C@@H](CS(=O)(=O)c2cccc3ccccc23)NS(C)(=O)=O)C(C(=O)NC(C)(C)C)C1` (stereo partly drawn) [Example 29, 2-{2-Hydroxy-3-[2-methanesulfonylamino-3-(naphthalene-1-sulfonyl)-propionylamino]-4-phenyl-butyl}-5-methoxy-cyclohexanecarboxylic acid tert-butylamide]: the results for the IC50 in the assay with HIV-HXB2 in MT4 cells (setting [1]) and against HIV-1 protease (Enzyme IC50 (nM)) were 73 nM and 0.41 nM, respectively.
The like results for `CO[C@H]1CC[C@@H](C(=O)NC(C)(C)C)C(C[C@@H](O)[C@H](Cc2ccccc2)NC(=O)[C@@H](CSc2ccc3ccccc3c2)NS(C)(=O)=O)C1` (stereo partly drawn) [Example 7, N-tert-Butyl-[2-hydroxy-3-[[N2-(methanesulfonyl)-S-(2-naphthyl)-D-cysteinyl]amino]-4-phenylbutyl]-4-methoxy-1-cyclohexanecarboxamide] were, in that order, 35.8 nM and 0.42 nM.
`CC(C)(C)NC(=O)[C@@H]1CCCCC1C[C@@H](O)[C@H](Cc1ccccc1)NC(=O)[C@@H](CSc1cccc2ccccc12)NS(C)(=O)=O` (stereo in doubt) [Example 13, 2-{2-Hydroxy-3-[2-methanesulfonylamino-3-(naphthalen-1-ylsulfanyl)-propionylamino]-4-phenyl-butyl}-cyclohexanecarboxylic acid tert-butylamide] displayed a 50% inhibitory concentration (IC50) against HIV-1 protease (Enzyme IC50 (nM)) of 0.44 nM.
For `COC1CCC(C[C@@H](O)[C@H](Cc2ccccc2)NC(=O)[C@@H](C[S+]([O-])c2ccc3ccccc3c2)NS(C)(=O)=O)C(C(=O)NC(C)(C)C)C1` (stereo partly drawn) [Example 14, 2-{2-Hydroxy-3-[2-methanesulfonylamino-3-(naphthalene-2-sulfinyl)-propionylamino]-4-phenyl-butyl}-5-methoxy-cyclohexanecarboxylic Acid tert-Butylamide], the concentration for half-maximal inhibition (IC50) in the assay on HIV-HXB2 in MT4 cells (setting [1]) was 20.9 nM; at HIV-1 protease (Enzyme IC50 (nM)), 0.2 nM.
Taken in the same sequence, the figures for `CO[C@H]1CC[C@@H](C(=O)NC(C)(C)C)C(C[C@@H](O)[C@H](Cc2ccccc2)NC(=O)[C@@H](CS(=O)(=O)c2ccc3ccccc3c2)NS(C)(=O)=O)C1` (stereo partly drawn) [Example 27, N-tert-Butyl-2-[2-hydroxy-3-[[N2-(methanesulfonyl)-S-(2-naphthyl)-D-cysteinyl]amino]-4-phenylbutyl]-4-methoxy-1-cyclohexanecarboxamide S,S-dioxide] were 8.3 nM and 0.2 nM.
The like results for `CC1CC(C[C@@H](O)[C@H](Cc2ccccc2)NC(=O)[C@@H](CS(=O)(=O)c2ccc3ccccc3c2)NS(C)(=O)=O)C(C(=O)NC(C)(C)C)C1` (stereo partly drawn) [Example 23, 2-{2-Hydroxy-3-[2-methanesulfonylamino-3-(naphthalene-2-sulfonyl)-propionylamino]-4-phenyl-butyl}-4-methyl-cyclopentanecarboxylic acid tert-butylamide] were, in that order, 13 nM and 0.55 nM.
